Source: PubChem BioAssay AID1259407 (Chemical Carcinogenesis Research Information System (CCRIS), 2018)
Calls of active or inactive are those of the source. How the calls were made is not given here.

System: CCRIS mutagenicity, Ames/micronucleus/aberration tests
Assay: CCRIS mutagenicity studies
[1] = Test System: Ames Salmonella typhimurium, Strain/Indicator: TA98, Metabolic Activation: None, Method: Preincubation
[2] = Test System: Ames Salmonella typhimurium, Strain/Indicator: TA1535, Metabolic Activation: None, Method: Preincubation
[3] = Test System: AMES SALMONELLA TYPHIMURIUM, Strain/Indicator: TA102, Metabolic Activation: NONE, Method: STANDARD PLATE
[4] = Test System: AMES SALMONELLA TYPHIMURIUM, Strain/Indicator: TA1535, Metabolic Activation: NONE, Method: STANDARD PLATE
[5] = Test System: AMES SALMONELLA TYPHIMURIUM, Strain/Indicator: TA98, Metabolic Activation: NONE, Method: STANDARD PLATE
[6] = Test System: AMES SALMONELLA TYPHIMURIUM, Strain/Indicator: TA100, Metabolic Activation: NONE, Method: STANDARD PLATE
[7] = Test System: AMES SALMONELLA TYPHIMURIUM, Strain/Indicator: TA1537, Metabolic Activation: NONE, Method: STANDARD PLATE
[8] = Test System: AMES SALMONELLA TYPHIMURIUM, Strain/Indicator: TA1538, Metabolic Activation: NONE, Method: STANDARD PLATE

Question: What does the source list for `COc1cc(COC(=O)CCCCCCC(C)C)ccc1O`?
Answer: mutagenic call (End Point: In vivo micronucleus, Test System: Bone marrow polychromatic erythrocytes, Species: Mouse, Strain/Sex: BDF1/male, Route: Oral): inactive; negative; mutagenic call [1]: inactive; negative; mutagenic call (Test System: Ames Salmonella typhimurium, Strain/Indicator: TA98, Metabolic Activation: Rat, Liver, S-9, Phenobarbital and 5,6-benzoflavone, Method: Preincubation): inactive; negative; mutagenic call (Test System: Ames Salmonella typhimurium, Strain/Indicator: TA100, Metabolic Activation: Rat, Liver, S-9, Phenobarbital and 5,6-benzoflavone, Method: Preincubation): inactive; negative; mutagenic call [2]: inactive; negative; mutagenic call (Test System: Ames Salmonella typhimurium, Strain/Indicator: TA1535, Metabolic Activation: Rat, Liver, S-9, Phenobarbital and 5,6-benzoflavone, Method: Preincubation): inactive; negative; mutagenic call (Test System: Ames Salmonella typhimurium, Strain/Indicator: TA1537, Metabolic Activation: Rat, Liver, S-9, Phenobarbital and 5,6-benzoflavone, Method: Preincubation): inactive; negative; mutagenic call (Test System: E. coli, Strain/Indicator: WP2 uvrA, Metabolic Activation: None, Method: Preincubation): inactive; negative; mutagenic call (Test System: E. coli, Strain/Indicator: WP2 uvrA, Metabolic Activation: Rat, Liver, S-9, Phenobarbital and 5,6-benzoflavone, Method: Preincubation): inactive; negative

Question: Which mutagenic call (Test System: AMES SALMONELLA TYPHIMURIUM, Strain/Indicator: TA102, Metabolic Activation: NONE, Method: PREINCUBATION) does the source give for `CNNC` here?
Answer: inactive; negative

Question: And the mutagenic call [3]?
Answer: inactive; negative

Question: What about the mutagenic call (Test System: AMES SALMONELLA TYPHIMURIUM, Strain/Indicator: TA1535, Metabolic Activation: NONE, Method: PREINCUBATION) of the same compound?
Answer: inactive; negative

Question: What about the mutagenic call [4] of the same compound?
Answer: inactive; negative

Question: And the mutagenic call (Test System: AMES SALMONELLA TYPHIMURIUM, Strain/Indicator: TA1535, Metabolic Activation: RAT, LIVER, S-9, AROCLOR 1254, Method: PREINCUBATION)?
Answer: inactive; negative

Question: And the mutagenic call (Test System: AMES SALMONELLA TYPHIMURIUM, Strain/Indicator: TA1537, Metabolic Activation: NONE, Method: PREINCUBATION)?
Answer: inactive; negative

Question: What about the mutagenic call (Test System: AMES SALMONELLA TYPHIMURIUM, Strain/Indicator: TA1537, Metabolic Activation: RAT, LIVER, S-9, AROCLOR 1254, Method: PREINCUBATION) of the same compound?
Answer: inactive; negative

Question: What about the mutagenic call (Test System: AMES SALMONELLA TYPHIMURIUM, Strain/Indicator: TA2638, Metabolic Activation: NONE, Method: STANDARD PLATE) of the same compound?
Answer: active; positive

Question: What about the mutagenic call (Test System: AMES SALMONELLA TYPHIMURIUM, Strain/Indicator: YG7108, Metabolic Activation: NONE, Method: STANDARD PLATE) of the same compound?
Answer: active; positive

Question: What about the mutagenic call (Test System: E. COLI, Strain/Indicator: WP2 (PKM101), Metabolic Activation: NONE, Method: STANDARD PLATE) of the same compound?
Answer: active; positive

Question: What about the mutagenic call (Test System: E. COLI, Strain/Indicator: WP2 UVRA (PKM101), Metabolic Activation: NONE, Method: STANDARD PLATE) of the same compound?
Answer: active; positive

Question: Which results are given for `CCc1ccc(/C=C/c2ccc(N)cc2)cc1`?
Answer: mutagenic call [5]: inactive; negative; mutagenic call (Test System: AMES SALMONELLA TYPHIMURIUM, Strain/Indicator: TA98, Metabolic Activation: RAT LIVER S9, AROCLOR, Method: STANDARD PLATE): active; positive; mutagenic call [6]: inactive; negative; mutagenic call (Test System: AMES SALMONELLA TYPHIMURIUM, Strain/Indicator: TA100, Metabolic Activation: RAT, LIVER, S9, AROCLOR, Method: STANDARD PLATE): active; positive

Question: How did the mutagenic call (Test System: AMES SALMONELLA TYPHIMURIUM, Strain/Indicator: TA98, Metabolic Activation: RAT LIVER S-9, CHLOROPHENE, Method: STANDARD PLATE (COMPOUND HEATED AT 250 DEGREES CELSIUS FOR 20 MIN)) turn out when `NC(CO)C(=O)O` (stereo not given) was run?
Answer: inactive; negative

Question: `O=c1[nH]c(=O)n([C@H]2C[C@H](O)[C@@H](CO)O2)cc1COO` was tested. Which mutagenic call [6] did it give?
Answer: active; positive

Question: And the mutagenic call [3]?
Answer: active; positive

Question: For `COc1ccc(N/C=C/C2=[N+](C)c3ccccc3C2(C)C)c(OC)c1`, which mutagenic call [1] is on record?
Answer: inactive; negative

Question: What about the mutagenic call (Test System: Ames Salmonella typhimurium, Strain/Indicator: TA98, Metabolic Activation: Rat, Liver, S-9, Aroclor 1254, Method: Preincubation) of the same compound?
Answer: inactive; negative

Question: And the mutagenic call (Test System: Ames Salmonella typhimurium, Strain/Indicator: TA100, Metabolic Activation: None, Method: Preincubation)?
Answer: inactive; negative

Question: What about the mutagenic call (Test System: Ames Salmonella typhimurium, Strain/Indicator: TA100, Metabolic Activation: Rat, Liver, S-9, Aroclor 1254, Method: Preincubation) of the same compound?
Answer: inactive; negative

Question: And the mutagenic call (Test System: Ames Salmonella typhimurium, Strain/Indicator: TA102, Metabolic Activation: None, Method: Preincubation)?
Answer: inactive; negative

Question: And the mutagenic call (Test System: Ames Salmonella typhimurium, Strain/Indicator: TA102, Metabolic Activation: Rat, Liver, S-9, Aroclor 1254, Method: Preincubation)?
Answer: inactive; negative

Question: And the mutagenic call [2]?
Answer: inactive; negative

Question: What about the mutagenic call (Test System: Ames Salmonella typhimurium, Strain/Indicator: TA1535, Metabolic Activation: Rat, Liver, S-9, Aroclor 1254, Method: Preincubation) of the same compound?
Answer: inactive; negative

Question: What does the source list for `c1ccc2c(c1)cc1c3c2ccc2cccc(c23)C2OC12` (stereo not given)?
Answer: mutagenic call (Test System: AMES SALMONELLA TYPHIMURIUM, Strain/Indicator: TA98, Metabolic Activation: NONE, Method: HOST-MEDIATED): inactive; negative; mutagenic call [5]: active; positive; mutagenic call (Test System: AMES SALMONELLA TYPHIMURIUM, Strain/Indicator: TA98, Metabolic Activation: RAT, LIVER, S-9, KC500 OR PHENOBARBITAL, Method: LIQUID SUSPENSION): active; positive; mutagenic call (Test System: AMES SALMONELLA TYPHIMURIUM, Strain/Indicator: TA100, Metabolic Activation: MICROSOMAL EPOXIDE HYDROLASE, Method: PREINCUBATION): active; positive; mutagenic call (Test System: AMES SALMONELLA TYPHIMURIUM, Strain/Indicator: TA100, Metabolic Activation: NONE, Method: HOST-MEDIATED): inactive; negative; mutagenic call (Test System: AMES SALMONELLA TYPHIMURIUM, Strain/Indicator: TA100, Metabolic Activation: NONE, Method: PREINCUBATION): active; positive; mutagenic call [6]: active; positive; mutagenic call (Test System: AMES SALMONELLA TYPHIMURIUM, Strain/Indicator: TA100, Metabolic Activation: RAT, LIVER, S-9, KC500 OR PHENOBARBITAL, Method: LIQUID SUSPENSION): active; positive; mutagenic call [7]: active; positive; mutagenic call (Test System: AMES SALMONELLA TYPHIMURIUM, Strain/Indicator: TA1538, Metabolic Activation: NONE, Method: HOST-MEDIATED): inactive; negative; mutagenic call [8]: active; positive; mutagenic call (Test System: CHINESE HAMSTER V-79, Strain/Indicator: V-79/6-THIOGUANINE, Metabolic Activation: NONE, Method: REPLATING): active; positive; mutagenic call (Test System: CHINESE HAMSTER V-79, Strain/Indicator: V-79/6-THIOGUANINE, Metabolic Activation: NONE, Method: STANDARD PLATE): active; positive; mutagenic call (Test System: CHINESE HAMSTER V-79, Strain/Indicator: V-79/8-AZAGUANINE, Metabolic Activation: NONE, Method: STANDARD PLATE): active; positive; mutagenic call (Test System: CHINESE HAMSTER V-79, Strain/Indicator: V-79/OUABAIN, Metabolic Activation: NONE, Method: STANDARD PLATE): active; positive; mutagenic call (Test System: E. COLI, Strain/Indicator: WP2UVRA, Metabolic Activation: NONE, Method: STANDARD PLATE): active; positive; mutagenic call (Test System: UDS HUMAN CELLS, Strain/Indicator: THY INCORP (NON-S-PHASE), Metabolic Activation: NONE, Method: LIQUID SCINTILLATION COUNTING): active; positive

Question: `CCc1c2ccccc2cc2c1ccc1ccccc12` was tested. Which mutagenic call (Test System: AMES SALMONELLA TYPHIMURIUM, Strain/Indicator: TA98, Method: STANDARD PLATE) did it give?
Answer: active; positive

Question: What about the mutagenic call (Test System: AMES SALMONELLA TYPHIMURIUM, Strain/Indicator: TA100, Metabolic Activation: RAT, LIVER, S-9, PHENOBARBITAL, Method: STANDARD PLATE) of the same compound?
Answer: inactive; negative

Question: And the mutagenic call (Test System: AMES SALMONELLA TYPHIMURIUM, Strain/Indicator: TA100, Method: STANDARD PLATE)?
Answer: active; positive

Question: `CC(C)N(C(=O)SC/C(Cl)=C/Cl)C(C)C` was tested. Which mutagenic call [5] did it give?
Answer: inactive; negative

Question: And the mutagenic call (Test System: AMES SALMONELLA TYPHIMURIUM, Strain/Indicator: TA98, Metabolic Activation: RAT, LIVER, S-9, AROCLOR 1254, Method: STANDARD PLATE)?
Answer: active; positive

Question: What about the mutagenic call [6] of the same compound?
Answer: inactive; negative

Question: What about the mutagenic call (Test System: AMES SALMONELLA TYPHIMURIUM, Strain/Indicator: TA100, Metabolic Activation: RAT, LIVER, S-9, AROCLOR 1254, Method: STANDARD PLATE) of the same compound?
Answer: active; positive

Question: What about the mutagenic call [4] of the same compound?
Answer: inactive; negative

Question: And the mutagenic call (Test System: AMES SALMONELLA TYPHIMURIUM, Strain/Indicator: TA1535, Metabolic Activation: RAT, LIVER, S-9, AROCLOR 1254, Method: STANDARD PLATE)?
Answer: active; positive

Question: What about the mutagenic call [7] of the same compound?
Answer: inactive; negative

Question: And the mutagenic call (Test System: AMES SALMONELLA TYPHIMURIUM, Strain/Indicator: TA1537, Metabolic Activation: RAT, LIVER, S-9, AROCLOR 1254, Method: STANDARD PLATE)?
Answer: inactive; negative

Question: What about the mutagenic call [8] of the same compound?
Answer: inactive; negative

Question: What about the mutagenic call (Test System: AMES SALMONELLA TYPHIMURIUM, Strain/Indicator: TA1538, Metabolic Activation: RAT, LIVER, S-9, AROCLOR 1254, Method: STANDARD PLATE) of the same compound?
Answer: inactive; negative
